The values that follow come from ChEMBL document CHEMBL5329217, “Hesperidin Methyl Chalcone reduces extracellular Aβ(25-35) peptide aggregation and fibrillation and also protects Neuro 2a cells from Aβ(25-35) induced neuronal dysfunction” (Bioorg Med Chem, 2023).

Series [1] concerns the target Acetylcholinesterase (Electrophorus electricus) (UniProt O42275). The series is described as follows: Inhibition of electric eel AchE using acetylthiocholine iodide as substrate at 20 to 100 ug/ml by Ellman's method relative to control. To be noted: dose 20-100 µg/ml. Background: DTNB colorimetry detects thiols as they appear.
The target is the same in series [2]. The series is described as follows: Inhibition of electric eel AchE using acetylthiocholine iodide as substrate at 100 ug/ml by Ellman's method relative to control. To be noted: dose 100.0 µg/ml.
Series [3] can be described thus: Antioxidant activity assessed as free radical scavenging activity at 100 ug/ml by DPPH assay relative to control. The series is classed as functional. To be noted: dose 100.0 µg/ml. A general note: The DPPH test is a chemical assay of radical scavenging.
Series [4] in a line: Toxicity in Artemia salina assessed as mortality rate at 5 ug/ml measured after 24 hrs relative to control. It is filed as organism-based. The following applies: in vivo, at 5 µg/mL.
The nature of series [5]: Toxicity in Artemia salina assessed as mortality rate at 25 ug/ml measured after 24 hrs relative to control. It is filed as organism-based. To be noted: in vivo, at 25 µg/mL.
The nature of series [6]: Toxicity in Artemia salina assessed as mortality rate at 50 ug/ml measured after 24 hrs relative to control. The series is classed as organism-based. The following applies: in vivo, at 50 µg/mL.
The nature of series [7]: Toxicity in Artemia salina assessed as mortality rate at 75 ug/ml measured after 24 hrs relative to control. It is filed as organism-based. The following applies: in vivo, at 75 µg/mL.
Series [8] in a line: Toxicity in Artemia salina assessed as mortality rate at 100 ug/ml measured after 24 hrs relative to control. The series is classed as organism-based. To be noted: in vivo, at 100 µg/mL.
The nature of series [9]: Toxicity in Artemia salina assessed as lethal dose. It is filed as organism-based. The following applies: in vivo.
Series [10] deals with Artemia salina. The series is described as follows: Toxicity in Artemia salina assessed as induction of morphological changes by measuring variation in the mandibles at 5 to 100 ug/ml treated for 24 hrs by phase contrast light microscopy. The following applies: in vivo, dose 5-100 µg/ml. The series is classed as organism-based.
Series [11] deals with Artemia salina. The series is described as follows: Toxicity in Artemia salina assessed as induction of morphological changes by measuring improper development at 5 to 100 ug/ml treated for 24 hrs by phase contrast light microscopy. To be noted: in vivo, dose 5-100 µg/ml. It is filed as organism-based.
Series [12] deals with Artemia salina. The experiment in a line: Toxicity in Artemia salina assessed as induction of morphological changes by measuring improper antennae swimming setae at 5 to 100 ug/ml treated for 24 hrs by phase contrast light microscopy. The series is classed as organism-based. To be noted: in vivo, dose 5-100 µg/ml.
Series [13] relates to Artemia salina. The experiment in a line: Toxicity in Artemia salina assessed as decrease in total length of the shrimp at 5 to 100 ug/ml measured after 24 hrs by phase contrast light microscopy. It is filed as organism-based. The following applies: in vivo, dose 5-100 µg/ml.
The target of series [14] is Amyloid-beta precursor protein (Homo sapiens) (UniProt P05067). The experiment in a line: Inhibition of amyloid beta (25 to 35) (unknown origin) aggregation assessed as fluorescence intensity at 50 ug/ml incubated for 24 hrs by ThT-based fluorescence analysis (reference value: 22.15 +/-1.41 AU). The following applies: dose 50.0 µg/ml.
Series [15] shares this target. The series is described as follows: Inhibition of amyloid beta (25 to 35) (unknown origin) aggregation assessed as fluorescence intensity at 50 ug/ml incubated for 48 hrs by ThT-based fluorescence analysis (reference value: 26.85 +/-0.78 AU). The following applies: dose 50.0 µg/ml.
The target is the same in series [16]. The series is described as follows: Inhibition of amyloid beta (25 to 35) (unknown origin) aggregation assessed as fluorescence intensity at 50 ug/ml incubated for 96 hrs by ThT-based fluorescence analysis (reference value: 31.63 +/-0.68 AU). To be noted: dose 50.0 µg/ml.
Series [17] has the same target. The experiment in a line: Inhibition of amyloid beta (25 to 35) (unknown origin) aggregation assessed as fluorescence intensity at 50 ug/ml incubated for 9 days by ThT-based fluorescence microscopic analysis (reference value: 36.84 +/-0.94 AU). The following applies: dose 50.0 µg/ml, time 9.0 day.
For series [18] the target is unchanged. The experiment in a line: Disaggregation of amyloid beta (25 to 35) (unknown origin) mature fibrils at 50 ug/ml incubated for 1 to 9 days by ThT-based fluorescence microscopic analysis. To be noted: dose 50.0 µg/ml, time 1-9 day.
For the next series, the system named is N2a. The experiment in a line: Cytotoxicity against mouse Neuro2a cells upto 200 ug/ml incubated for 24 hrs by MTT assay. It is filed as toxicity, cell-based. To be noted: dose < 200 µg/ml.

Structures are written as SMILES. In brackets after ≈: the same amount, converted by molar mass. Activity calls are given as the source filed them. No cut-off for these calls is given here.

Sequence of Amyloid-beta precursor protein (Homo sapiens) (P05067 whole entry): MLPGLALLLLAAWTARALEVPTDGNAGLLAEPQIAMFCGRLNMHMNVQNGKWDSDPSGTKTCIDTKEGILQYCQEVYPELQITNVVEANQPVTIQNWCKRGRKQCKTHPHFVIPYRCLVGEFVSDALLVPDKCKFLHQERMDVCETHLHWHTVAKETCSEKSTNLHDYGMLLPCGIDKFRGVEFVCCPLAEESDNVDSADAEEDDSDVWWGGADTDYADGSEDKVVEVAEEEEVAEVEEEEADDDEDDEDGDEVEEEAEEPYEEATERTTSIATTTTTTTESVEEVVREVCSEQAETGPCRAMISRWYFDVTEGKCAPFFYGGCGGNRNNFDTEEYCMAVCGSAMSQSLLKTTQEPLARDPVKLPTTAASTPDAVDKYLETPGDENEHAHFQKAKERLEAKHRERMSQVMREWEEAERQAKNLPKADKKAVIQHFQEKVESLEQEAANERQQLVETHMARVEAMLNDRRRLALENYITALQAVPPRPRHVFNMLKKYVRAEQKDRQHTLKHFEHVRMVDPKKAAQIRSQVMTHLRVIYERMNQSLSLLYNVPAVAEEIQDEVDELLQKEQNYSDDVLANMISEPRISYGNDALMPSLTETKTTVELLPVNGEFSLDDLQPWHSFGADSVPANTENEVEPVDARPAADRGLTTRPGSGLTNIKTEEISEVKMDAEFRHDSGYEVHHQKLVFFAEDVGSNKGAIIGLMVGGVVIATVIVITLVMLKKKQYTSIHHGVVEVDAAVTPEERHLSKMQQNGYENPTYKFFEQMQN
Sequence of Acetylcholinesterase (Electrophorus electricus) (O42275 24-633 limits assumed): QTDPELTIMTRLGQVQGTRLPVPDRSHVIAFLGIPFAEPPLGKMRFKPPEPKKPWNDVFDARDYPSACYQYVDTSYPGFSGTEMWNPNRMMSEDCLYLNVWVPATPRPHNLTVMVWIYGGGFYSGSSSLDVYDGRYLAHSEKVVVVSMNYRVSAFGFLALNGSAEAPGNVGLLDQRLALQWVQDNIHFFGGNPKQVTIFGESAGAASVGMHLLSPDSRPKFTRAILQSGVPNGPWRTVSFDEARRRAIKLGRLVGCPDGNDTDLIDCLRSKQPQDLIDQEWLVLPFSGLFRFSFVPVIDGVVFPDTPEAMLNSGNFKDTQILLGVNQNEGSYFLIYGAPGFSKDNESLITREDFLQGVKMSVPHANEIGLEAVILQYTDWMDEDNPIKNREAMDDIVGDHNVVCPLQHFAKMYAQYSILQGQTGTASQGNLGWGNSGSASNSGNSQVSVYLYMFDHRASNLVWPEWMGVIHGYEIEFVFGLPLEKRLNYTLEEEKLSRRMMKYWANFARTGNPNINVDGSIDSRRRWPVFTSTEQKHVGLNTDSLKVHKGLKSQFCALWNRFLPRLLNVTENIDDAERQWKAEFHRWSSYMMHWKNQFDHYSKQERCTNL

A word on the inhibition: it is the share of the control response that was lost under treatment. As usually defined, the mortality is the percentage killed. The term LC50 denotes the concentration that kills 50% of the test population. On to `COc1ccc(/C=C/C(=O)c2c(O)cc(O[C@@H]3O[C@H](CO[C@@H]4O[C@@H](C)[C@H](O)[C@@H](O)[C@H]4O)[C@@H](O)[C@H](O)[C@H]3O)cc2OC)cc1O`, for which the inhibition in [1] is > 80%; in series [2], 93%; in series [3], 68.4%. Besides, in [4], the mortality at 24 h, 5 ug/ml turned out to be 0%. In series [5], the mortality at 24 h, 25 ug/ml is 0%. For the same molecule, the mortality at 24 h, 50 ug/ml in series [6] is 3.33%. In series [7], the mortality at 24 h, 75 ug/ml is 36.6%. In addition, the mortality at 24 h, 100 ug/ml in series [8] came to 53.3%. In series [9], the LC50 turned out to be 100 µg/mL (≈ 160 µM). Besides, the Activity entry with Artemia salina [10] was “Toxic”; in the series on Artemia salina [11], “Toxic”; with Artemia salina [12], “Toxic”; with Artemia salina [13], “Toxic”; in the series on N2a, “Non-Toxic”. The Flu intensity in series [14] is 19.8 a.u; in series [15] it was 6.45 a.u; in [16], 10 a.u; in [17] it was 11.8 a.u. Further, the outcome in [18] was Active.
